The assay has as its system TFEB. The experiment in a line: TFEB nuclear translocation assay, HeLa wt cells. The note with it: 2 hrs compound treatment, Table 1 does not say HeLa wt or TRPML1 KO. Format: cell-based. The gist of the method:
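Using 20× epifluorescence of fixed, anti-TFEB-stained HeLa wt cells treated 2 hrs with compound, nuclear versus perinuclear ring intensity was quantified over four fields per well, yielding AC50 values.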

The structures appear in SMILES notation.

The text below walks through data of patent US20230104936A1, “TRPML MODULATORS” (Casma Therapeutics, Inc., priority 2019, published 2023).

What is called AC50 is the concentration at which the activity in the assay is half-maximal. A higher AC50 goes with activity only at high concentration. With `CN(C)S(=O)(=O)c1ccc(S(=O)(=O)Nc2ccccc2N2CCC3(CCCO3)CC2)cc1` [Compound A-584, N1,N1-dimethyl-N4-(2-{1-oxa-8-azaspiro[4.5]decan-8-yl}phenyl)benzene-1,4-disulfonamide], for the setting “Homo sapiens, HeLa, 2 h”, the AC50 is ≤ 2 µM.
With `CN(C)S(=N)(=O)c1ccc(S(=O)(=O)Nc2cccc(F)c2N2CCC(CN3CC4CCC(C3)O4)CC2)cc1` (centres unmarked) [Compound A-852, N-(2-(4-((8-oxa-3-azabicyclo[3.2.1]octan-3-yl)methyl)piperidin-1-yl)-3-fluorophenyl)-4-(N,N-dimethylsulfamidimidoyl)benzenesulfonamide], the concentration at half-maximal activity (AC50) is ≤ 2 µM.
As for `CC1(C)CC2(CCN(c3ccccc3NS(=O)(=O)Cc3cccc(F)c3)CC2)CO1` [Compound A-668, N-(2-{3,3-dimethyl-2-oxa-8-azaspiro[4.5]decan-8-yl}phenyl)-1-(3-fluorophenyl)methanesulfonamide], the AC50 (Homo sapiens, HeLa, 2 h) fell in the range of 2.01 to 8 µM.
Take `CN(C)S(=O)(=O)c1ccc(S(=O)(=O)Nc2ccccc2N2CCC(c3ccccc3C(=O)O)CC2)cc1` [Compound A-259, 2-(1-{2-[4-(dimethylsulfamoyl)benzenesulfonamido]phenyl}piperidin-4-yl)benzoic acid]: the half-maximal activity concentration (AC50) (Homo sapiens, HeLa, 2 h) is ≥ 10 µM.
Same read-out and setting: the value for `COCC1(C)CCN(c2ccc(F)cc2NS(=O)(=O)c2ccc(S(=O)(=O)N(C)C)cc2)CC1` [Compound A-695, N4-{5-fluoro-2-[4-(methoxymethyl)-4-methylpiperidin-1-yl]phenyl}-N1,N1-dimethylbenzene-1,4-disulfonamide] was ≤ 2 µM; that for `CN(C(=O)C1CCN(c2ccccc2NS(=O)(=O)c2ccc(S(=O)(=O)N(C)C)cc2)CC1)C(C)(C)C` [Compound A-359, N-tert-butyl-1-{2-[4-(dimethylsulfamoyl)benzenesulfonamido]phenyl}-N-methylpiperidine-4-carboxamide] was ≤ 2 µM.
Take `CP(C)(=O)c1ccc(S(=O)(=O)Nc2cc(Cl)ccc2N2CCOCC2)cc1` [Compound A-284, N-[5-chloro-2-(morpholin-4-yl)phenyl]-4-(dimethylphosphoryl)benzene-1-sulfonamide]: the AC50 (Homo sapiens, HeLa, 2 h) was ≥ 10 µM.
For the molecule `CN(C)S(=O)(=O)c1ccc(S(=O)(=O)Nc2ccccc2N2CCC(c3ccc(Cl)cc3F)CC2)c(F)c1` [Compound A-149, N4-{2-[4-(4-chloro-2-fluorophenyl)piperidin-1-yl]phenyl}-3-fluoro-N1,N1-dimethylbenzene-1,4-disulfonamide], the concentration at half-maximal activity (AC50) (Homo sapiens, HeLa, 2 h) is ≤ 2 µM.
For the molecule `O=S(=O)(Nc1ccccc1N1CCC(c2ccc(F)cc2F)CC1)c1ccc(S(=O)(=O)C(F)(F)F)cc1` [Compound A-173, N-{2-[4-(2,4-difluorophenyl)piperidin-1-yl]phenyl}-4-trifluoromethanesulfonylbenzene-1-sulfonamide], for the setting “Homo sapiens, HeLa, 2 h”, the AC50 is ≤ 2 µM.
Where the note is “Homo sapiens, HeLa, 2 h”, `CCC1(N2CCN(c3ccccc3NS(=O)(=O)c3ccc(S(=O)(=O)N(C)C)cc3)CC2)COC1` [Compound A-464, N4-{2-[4-(3-ethyloxetan-3-yl)piperazin-1-yl]phenyl}-N1,N1-dimethylbenzene-1,4-disulfonamide] returned an AC50 of 2.01 to 8 µM.
Regarding `CN(C)S(=O)(=O)c1ccc(S(=O)(=O)Nc2ccccc2N2CCN(C3CCCCC3)CC2)cc1` [Compound A-53, N4-[2-(4-cyclohexylpiperazin-1-yl)phenyl]-N1,N1-dimethylbenzene-1,4-disulfonamide], the AC50 (Homo sapiens, HeLa, 2 h) lay in the range of 2.01 to 8 µM.
On to `C[C@H]1COC[C@H](C)N1CC1CCN(c2c(F)cccc2NS(=O)(=O)c2ccc(S(=N)(=O)N(C)C)cc2)CC1` (stereo partly drawn) [Compound A-840, N-(2-(4-(((3S,5S)-3,5-dimethylmorpholino)methyl)piperidin-1-yl)-3-fluorophenyl)-4-(N,N-dimethylsulfamidimidoyl)benzenesulfonamide], for which the concentration at half-maximal activity (AC50) was ≤ 2 µM.
Take `COCC1(C)CCN(c2ccccc2NS(=O)(=O)c2ccc(C3(C(F)(F)F)N=N3)cc2)CC1` [Compound A-740, N-{2-[4-(methoxymethyl)-4-methylpiperidin-1-yl]phenyl}-4-[3-(trifluoromethyl)-3H-diazirin-3-yl]benzene-1-sulfonamide]: the concentration at half-maximal activity (AC50) (Homo sapiens, HeLa, 2 h) lay in the range of 8.01 to 9.99 µM.
Still for that read-out and setting: the value for `Cc1nn(C)c(N2CCN(c3ccc(Cl)cc3F)CC2)c1NS(=O)(=O)c1ccc(S(=O)(=O)N(C)C)cc1` [Compound A-18, N1-(5-(4-(4-chloro-2-fluorophenyl)piperazin-1-yl)-1,3-dimethyl-1H-pyrazol-4-yl)-N4,N4-dimethylbenzene-1,4-disulfonamide] was ≤ 2 µM.
Still for that read-out and setting: the value for `CN(C)S(=O)(=O)c1ccc(S(=O)(=O)Nc2ccccc2C2CCN(c3ccc(Cl)cc3F)CC2)cc1` [Compound A-22, N1-(2-(1-(4-chloro-2-fluorophenyl)piperidin-4-yl)phenyl)-N4,N4-dimethylbenzene-1,4-disulfonamide] was 2.01 to 8 µM.
On to `CN(C)S(=O)(=O)c1ccc(S(=O)(=O)Nc2ccccc2N2CCC3(CC2)CN(Cc2ccccc2)c2cc(F)ccc23)cc1` [Compound A-304, N4-(2-{1-benzyl-6-fluoro-1,2-dihydrospiro[indole-3,4′-piperidin]-1′-yl}phenyl)-N1,N1-dimethylbenzene-1,4-disulfonamide], for which the concentration at half-maximal activity (AC50) (Homo sapiens, HeLa, 2 h) was ≤ 2 µM.
Same read-out and setting: with `O=S(=O)(Nc1cccc(N2CCC(c3ccc(Cl)cc3F)CC2)c1)c1ccccc1F` [Compound A-114, N-{3-[4-(4-chloro-2-fluorophenyl)piperidin-1-yl]phenyl}-2-fluorobenzene-1-sulfonamide] the figure was ≥ 10 µM; with `CN(C)S(=O)(=O)c1ccc(NS(=O)(=O)c2ccccc2N2CCC(c3ccc(Cl)cc3F)CC2)cc1` [Compound A-108, 4-((2-(4-(4-chloro-2-fluorophenyl)piperidin-1-yl)phenyl)sulfonamido)-N,N-dimethylbenzenesulfonamide], ≤ 2 µM; with `O=S(=O)(Nc1cc(Cl)ccc1N1CCC(c2c(F)cccc2F)CC1)c1ccc2c(c1)CCC2` [Compound A-292, N-{5-chloro-2-[4-(2,6-difluorophenyl)piperidin-1-yl]phenyl}-2,3-dihydro-1H-indene-5-sulfonamide], ≤ 2 µM.
The same measure, in the same setting: the value for `COCC1(C)CCN(c2ccccc2C(C)S(=O)(=O)c2ccc(S(=O)(=O)N(C)C)cc2)CC1` (centres unmarked) [Compound A-491, 4-(1-{2-[4-(methoxymethyl)-4-methylpiperidin-1-yl]phenyl}ethanesulfonyl)-N,N-dimethylbenzene-1-sulfonamide] was ≤ 2 µM.
Regarding `CC(c1cccc(F)c1N1CCC(CN2C3CCC2COC3)CC1)S(=O)(=O)c1ccc(S(=O)(=O)N(C)C)cc1` (centres unmarked) [Compound A-839, 4-(1-{3-fluoro-2-[4-({3-oxa-8-azabicyclo[3.2.1]octan-8-yl}methyl)piperidin-1-yl]phenyl}ethanesulfonyl)-N,N-dimethylbenzene-1-sulfonamide], the AC50 is ≤ 2 µM.
For the molecule `CN(C)S(=O)(=O)c1ccc(S(=O)(=O)Nc2ccccc2N2CCC3(CC2)COc2cc(F)ccc23)cc1` [Compound A-253, N4-(2-{6-fluoro-2H-spiro[1-benzofuran-3,4′-piperidin]-1′-yl}phenyl)-N1,N1-dimethylbenzene-1,4-disulfonamide], for the setting “Homo sapiens, HeLa, 2 h”, the half-maximal activity concentration (AC50) was ≤ 2 µM.
The same measure, in the same setting: with `CC1(C)Cc2cc(S(=O)(=O)Nc3ccccc3N3CCC(C(C)(F)F)CC3)ccc2O1` [Compound A-636, N-{2-[4-(1,1-difluoroethyl)piperidin-1-yl]phenyl}-2,2-dimethyl-2,3-dihydro-1-benzofuran-5-sulfonamide] the figure was ≤ 2 µM.
